Experimental data: US9822344B2, “Method for culturing pluripotent stem cells” (OSAKA UNIVERSITY, priority 2012, dated 2017)

How the values were obtained:
Assay type in all cases: cell-based, human
iPS cells: Tic (Np 39) [1] = assay: Influences of feeder-free culture on iPS cells: Rac-1 inhibitor added; settings: Rac-1 inhibitor 100 or 150 μM at day 3 (FIG. 19: 150 μM), Synthemax Surface
Procedure: (§1) Synthemax Surface (trade name, manufactured by Corning Inc.) was used as a culture surface, and iPS cells were seeded thereover. The culture medium was exchanged with a maintenance medium every 24 hours until day 7. After the culture, the expression of Oct3/4 of the cultured cells was confirmed by immunocytostaining, and DAPI staining was performed. The used cells and media, as well as the culture conditions are as follows.
mTeSR (Trade Mark) 1 medium (trade name, manufactured by STEMCELL, Technologies)
Next, cells were cultured and observed in the same manner as those described above except that the Rac-1 inhibitor was added at 100 or 150 μM at three days after the start of the culture (day 3). Micrographs obtained are illustrated in FIG. 19. FIG. 19 illustrates micrographs obtained in the case where the Rac-1 inhibitor was 150 μM.

iPS cells: Tic (Np 39) [2] = assay: Influences of feeder cells on iPS cells: Rac-1 inhibitor added in culture on MEF feeder cells; settings: Rac-1 inhibitor 50, 100, or 150 μM added at day 3, outer edge part without inhibitor
Procedure: as §1, with “On feeder cells,” for “Synthemax Surface (trade name, manufactured by Corning Inc.) was used as a culture surface, and”, “seeded, and the” for “seeded thereover. The”
iPS cells: Repro Stem (trade name, manufactured by ReproCELL J, Inc.), 5 ng/mL FGF-2
Micrographs obtained are illustrated in FIG. 17.
Next, cells were cultured and observed in the same manners as those described above except that a Rac-1 inhibitor (trade name: NSC23766, Calbiochem brand), which is a migration inhibitor, was added at 50, 100, or 150 μM at three days after the start of the culture (day 3). The obtained micrographs are illustrated in FIG. 17.
Dilution of Rac-1 inhibitor: the Rac-1 inhibitor was diluted by using a medium (Repro Stem) (final concentration: 50 or 100 μM).
Further, bFGF (trade name, manufactured by ReproCELL, Inc., final concentration 5 ng/ml) was added thereto, and the Rac-1 inhibitor thus diluted was added to iPS cells.

iPS cells = assay: Rac-1 inhibitor added in culture on SNL feeder cells; settings: Rac-1 inhibitor 50 or 100 μM added at day 3, same as without inhibitor
Procedure: Culture was performed by using SNL feeder cells as the feeder cells and adding the Rac-1 inhibitor (50 or 100 μM) at three days after the culture start (day 3).

CCN(CC)CCCC(C)Nc1nc(C)cc(Nc2ccc3nc(C)cc(N)c3c2)n1 (racemic) [Rac-1 inhibitor]
Part of the colony where deviated cells emerge (iPS cells: Tic (Np 39) [1]): allowed deviated cells to emerge in the center part of a colony | Part of the colony where deviated cells emerge (iPS cells: Tic (Np 39) [2]): emerge in the center part of the colony | Part of the colony where deviated cells grew (iPS cells): Deviated cells grew in the center part of a colony
